A word on the IC50: it is the midpoint of a concentration-inhibition curve.

This passage reports IC50 results from patent US20090221607A1, “Piperazine Derivatives” (M's Science Corporation, priority 2006, published 2009).

The test concerns the target T1, σ1 receptors (Homo sapiens, UniProt Q99720).
T1 construct: endogenous in cells; host or cells: HEK-293 cell membranes
Kind of test: σ1 receptor binding assay ((+)-[3H]pentazocine displacement, HEK-293 cell membranes). To be noted: 10 nM (+)-[3H]-pentazocine, 120 min at 37° C. On the procedure: Sigma-1 (σ1) and sigma-2 (σ2) receptor binding assays are carried out in membranes from HEK-293 (Human Embryonic Kidney) cells.
Confluent HEK-293 cells are harvested in PBS/5 mM EDTA. They are centrifuged at 2000 rpm for 5 min and then washed two times in PBS. Cells are homogenized in 20 mM Tris-HCL (pH=7.5) containing 5 mM EDTA, 0.5 mM PMSF and 0.5 μg/mL leupeptin using a Dounce homogenizer and sonicated for 5 minutes.
Nuclear debris and intact cells are removed by centrifugation at 3000 rpm for 10 minutes at 4° C. The supernatant is centrifuged at 12000 rpm for 30 minutes and the resulting pellet is resuspended in 25 mM Tris-HCL (pH=7.5), 25 mM Mg2Cl, 10% sucrose containing 0.5 mM PMSF, 2 mM AEBSF, 1 mM EDTA, 130 μM bestatin, 14 μM E-64, 1 μM leupeptin and […] aprotinin.
Proteins are determined using the Bio Rad Protein Assay Dye Reagent and the membranes are aliquoted and frozen at −80° C. […]
Total binding is determined by incubating 50 μg of HEK-293 cell membranes with 10 nM (+)-[^3H]-pentazocine (Perkin-Elmer, 35 Ci/mmol) and assay buffer (50 mM Tris-HCl, pH=8.3) in a total volume of 200 μl. Non specific binding is determined in the presence of 10 μM unlabeled pentazocine. […] The filters are washed three times and the membrane-bound radioactivity is determined in a Microbeta scintillation counter. […]
Specific binding is determined by subtraction of non specific binding from total binding. […]

Molecules are shown by their SMILES. Structures can show the parent of a compound that is named as a salt.

T1 sequence (Q99720 whole entry): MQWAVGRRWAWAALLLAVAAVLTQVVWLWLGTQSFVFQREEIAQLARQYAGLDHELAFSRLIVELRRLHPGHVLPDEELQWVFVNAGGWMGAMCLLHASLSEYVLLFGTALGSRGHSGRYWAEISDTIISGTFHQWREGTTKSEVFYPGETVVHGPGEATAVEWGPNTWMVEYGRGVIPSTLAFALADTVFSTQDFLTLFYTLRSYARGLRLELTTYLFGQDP

As for `Fc1ccccc1OCCN1CCN(CCOc2ccccc2F)CC1` [Example 1, 1,4-Bis-[2-(2-fluorophenoxy)ethyl]piperazine dihydrochloride], the IC50 was below 700 nM.
In the case of `Fc1ccc(OCCN2CCN(CCOc3ccc(F)cc3)CC2)cc1` [1,4-bis-[2-(4-fluorophenoxy)ethyl]piperazine], the IC50 was below 700 nM.
